# Assay results reported in ChEMBL document CHEMBL2311317, “Organosilicon molecules with medicinal applications” (J Med Chem, 2013).
# Calls of active or inactive are those of the source. No cut-off for these calls is given here.
# Tests used:
# [1] = test system: HL-60; assay: Growth inhibition of human HL60 cells by Sulforhodamine B assay; format: functional
# [2] = biological target: Opioid receptors; mu/kappa/delta (Homo sapiens) (UniProt P41145+P41143+P35372); assay: Inhibition of opioid receptor (unknown origin) at […]
# Chain of Opioid receptors; mu/kappa/delta (Homo sapiens) (P35372 whole entry, looked up): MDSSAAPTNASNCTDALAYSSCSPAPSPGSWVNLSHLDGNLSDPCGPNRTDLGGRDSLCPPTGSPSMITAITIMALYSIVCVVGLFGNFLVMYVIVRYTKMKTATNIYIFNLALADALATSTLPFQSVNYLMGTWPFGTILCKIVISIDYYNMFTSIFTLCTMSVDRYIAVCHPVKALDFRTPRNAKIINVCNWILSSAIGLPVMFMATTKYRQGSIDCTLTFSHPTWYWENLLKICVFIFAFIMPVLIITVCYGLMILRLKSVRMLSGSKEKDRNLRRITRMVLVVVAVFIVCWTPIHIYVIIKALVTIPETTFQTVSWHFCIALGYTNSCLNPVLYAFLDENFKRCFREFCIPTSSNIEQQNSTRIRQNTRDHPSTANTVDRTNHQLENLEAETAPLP
# Chain of Opioid receptors; mu/kappa/delta (Homo sapiens) (P41143 whole entry, looked up): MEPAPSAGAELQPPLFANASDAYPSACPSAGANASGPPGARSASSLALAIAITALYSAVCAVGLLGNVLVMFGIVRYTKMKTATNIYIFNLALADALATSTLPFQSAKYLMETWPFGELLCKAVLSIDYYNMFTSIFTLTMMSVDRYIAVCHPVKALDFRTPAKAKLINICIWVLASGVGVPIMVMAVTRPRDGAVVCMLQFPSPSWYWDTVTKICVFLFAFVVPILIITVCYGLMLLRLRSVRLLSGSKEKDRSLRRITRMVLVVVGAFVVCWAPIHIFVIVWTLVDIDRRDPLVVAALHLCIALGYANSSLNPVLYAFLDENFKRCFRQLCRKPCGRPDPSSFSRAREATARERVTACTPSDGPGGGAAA
# Chain of Opioid receptors; mu/kappa/delta (Homo sapiens) (P41145 whole entry, looked up): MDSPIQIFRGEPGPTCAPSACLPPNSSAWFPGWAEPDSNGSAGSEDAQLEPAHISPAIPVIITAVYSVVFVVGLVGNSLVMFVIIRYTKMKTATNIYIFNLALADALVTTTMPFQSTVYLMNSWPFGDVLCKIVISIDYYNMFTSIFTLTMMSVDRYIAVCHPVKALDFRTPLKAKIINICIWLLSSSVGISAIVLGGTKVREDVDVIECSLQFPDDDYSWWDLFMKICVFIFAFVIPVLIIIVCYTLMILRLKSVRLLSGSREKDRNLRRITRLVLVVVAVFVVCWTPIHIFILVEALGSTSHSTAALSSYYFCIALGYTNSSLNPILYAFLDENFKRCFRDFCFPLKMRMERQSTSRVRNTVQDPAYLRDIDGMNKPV
# [3] = test system: HepG2; assay: Growth inhibition of human HepG2 cells; format: functional, cell-based
# [4] = Inhibition of thermolysin metalloprotease (unknown origin); design: species or system Homo sapiens
# [5] = Inhibition of HIV protease; design: species or system Human immunodeficiency virus
# [6] = test system: A2780; assay: Growth inhibition of human A2780 cells by Sulforhodamine B assay; format: functional
# [7] = Inhibition of serine protease (unknown origin); design: species or system Homo sapiens
compound,measurement,setting,value
COC(=O)/C=C/C[C@H]1OCCC[C@@H]1O[Si](C)(C)C(C)(C)C (relative stereo),GI50,[1],22 µM
COc1ccc(C(CN(C)C)[Si]2(O)CCCCC2)cc1 (racemic),inhibition,[2],< 50%
COC(=O)/C=C/C[C@H]1OCCC[C@@H]1OC(=O)c1ccccc1 (relative stereo),GI50,[1],inactive
COc1ccc([Si](C)(C)[C@H]2[C@H](CC(=O)N3CCC[C@H]3CO)O[C@@]3(C(=O)N(Cc4cccc(I)c4)c4ccccc43)[C@@H]2C)cc1,EC50,[3],17 µM
CC(C)C[C@H](NC(=O)[C@H](Cc1ccccc1)C[Si](O)(O)CNC(=O)CCc1ccccc1)C(=O)O,IC50,[4],0.041 µM
O=C(N[C@H]1c2ccccc2C[C@H]1O)[C@H](Cc1ccccc1)C[Si](O)(O)C[C@@H](Cc1ccccc1)C(=O)N[C@H]1c2ccccc2C[C@H]1O,IC50,[5],0.014 µM
COc1ccc(C(CN(C)C)[Si]2(O)CCCC2)cc1 (centres undefined),inhibition,[2],< 50%
COC(=O)/C=C\[C@H]1OCCC[C@H]1O[Si](C)(C)C(C)(C)C (relative stereo),GI50,[6],7.3 µM
COC(=O)/C=C/C[C@H]1OCCC[C@@H]1OC(C)=O,GI50,[1],inactive
C[C@H](C[Si](O)(O)[C@H](Cc1ccccc1)NC(=O)[C@@H]1CCCN1)C(N)=O,Ki,[7],0.107 µM
CN(C)CC(c1ccccc1)[Si]1(O)CCCCC1 (centres undefined),inhibition,[2],< 50%
COC(=O)/C=C/[C@H]1OCCC[C@H]1O[Si](C)(C)C(C)(C)C,GI50,[6],98 µM
COC(=O)/C=C/C[C@H]1OCCC[C@@H]1O (relative stereo),GI50,[1],inactive
CC(C)(C)[Si](C)(C)O[C@@H]1CCCO[C@@H]1/C=C\CO (relative stereo),GI50,[6],> 100 µM
